Results published in the supplement of paper PMC10307832.

What was measured:
Assay in all cases: relative viability (nuclei count vs DMSO), 5 days (fraction); higher = more cells survive
[1] = compound: COc1cc2nc(N3CCCN(C)CC3)nc(NC3CCN(Cc4ccccc4)CC3)c2cc1OC + CC(C)C[C@H](NC(=O)[C@H](Cc1ccccc1)NC(=O)c1cnccn1)B(O)O [Bortezomib] (partner 0.002 µM)
Summary of the method: (§1)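 Lung cancer cell lines in 1536-well plates got either a single drug or a fixed anchor-drug dose together with five library-drug doses (not always all listed) in √10 steps, by pin tool, on the day after seeding. Nuclei were counted after 5 days, and relative viability is the treated-to-vehicle ratio of nuclei counts. Values are medians of duplicate plates.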

[2] = compound: COc1cc2nc(N3CCCN(C)CC3)nc(NC3CCN(Cc4ccccc4)CC3)c2cc1OC + CS(=O)(=O)CCNCc1ccc(-c2ccc3ncnc(Nc4ccc(OCc5cccc(F)c5)c(Cl)c4)c3c2)o1 [Lapatinib] (partner 2 µM)
Summary of the method: as §1

[3] = compound: COc1cc2nc(N3CCCN(C)CC3)nc(NC3CCN(Cc4ccccc4)CC3)c2cc1OC + C[C@]1(O)C[C@@H](c2nc(-c3ccc4ccc(-c5ccccc5)nc4c3)c3c(N)nccn32)C1 [Linsitinib] (partner 1 µM)
Summary of the method: as §1

[4] = compound: COc1cc2nc(N3CCCN(C)CC3)nc(NC3CCN(Cc4ccccc4)CC3)c2cc1OC + Cc1cc(Nc2cc(N3CCN(C)CC3)nc(Sc3ccc(NC(=O)C4CC4)cc3)n2)n[nH]1 [Tozasertib] (partner 0.1 µM)
Summary of the method: as §1

[5] = compound: COc1cc2nc(N3CCCN(C)CC3)nc(NC3CCN(Cc4ccccc4)CC3)c2cc1OC + O=C(c1cc(Cc2n[nH]c(=O)c3ccccc23)ccc1F)N1CCN(C(=O)C2CC2)CC1 [Olaparib] (partner 8 µM)
Summary of the method: as §1

Cell Line	relative viability ([1]; first compound 0.2 µM)	relative viability ([1]; first compound 0.6325 µM)	relative viability ([1]; first compound 2 µM)	relative viability ([1]; first compound 6.325 µM)	relative viability ([2]; first compound 0.2 µM)	relative viability ([2]; first compound 0.6325 µM)	relative viability ([2]; first compound 2 µM)	relative viability ([2]; first compound 6.325 µM)	relative viability ([3]; first compound 0.2 µM)	relative viability ([3]; first compound 0.6325 µM)	relative viability ([3]; first compound 2 µM)	relative viability ([3]; first compound 6.325 µM)	relative viability ([4]; first compound 0.2 µM)	relative viability ([4]; first compound 0.6325 µM)	relative viability ([4]; first compound 2 µM)	relative viability ([4]; first compound 6.325 µM)	relative viability ([5]; first compound 0.2 µM)	relative viability ([5]; first compound 0.6325 µM)	relative viability ([5]; first compound 2 µM)	relative viability ([5]; first compound 6.325 µM)
EMC-BAC-2	1.09	1.12	1.11	1.09	0.908	0.881	0.914	0.891	0.799	0.815	0.903	0.787	0.264	0.258	0.32	0.317	0.494	0.406	0.438	0.511
LU99A	1.26	1.08	1.22	1.01	0.909	0.93	1.1	0.898	0.628	0.537	0.552	0.549	0.238	0.255	0.283	0.262	0.287	0.215	0.249	0.287
ABC-1	0.26	0.339	0.264	0.328	1.09	1.14	1.25	1.05	0.815	0.66	0.871	0.936	0.197	0.211	0.201	0.297	1.17	0.768	0.983	0.915
NCI-H2347	1.04	0.846	1.08	1.07	0.901	1.01	0.954	0.911	0.936	0.927	0.882	0.922	0.568	0.604	0.743	0.64	0.563	0.532	0.535	0.521
NCI-H1993	1.02	1.37	1.23	1.05	0.684	0.907	0.834	0.751	0.728	0.723	0.676	0.765	0.583	0.622	0.604	0.625	1.03	1.05	1.14	1.2
NCI-H322M	1.31	1.28	1.12	1.2	0.573	0.642	0.621	0.605	0.826	0.887	0.939	0.901	0.481	0.451	0.417	0.437	0.763	0.782	0.771	0.688
NCI-H838	0.858	1.02	0.73	0.721	0.948	1.11	1.13	0.918	1.07	0.936	1.11	0.85	0.28	0.27	0.286	0.246	0.762	0.717	0.791	0.777
